Where two headings read alike, the source gives them in different places.
How the values were obtained:
[1] = test system: SARS-CoV-2 clinical omicron isolate; test: microbe, parasite or virus in culture; conditions: Severe acute respiratory syndrome coronavirus 2, Calu-3
[2] = test system: SARS-CoV-2 clinical omicron isolate

Compound | IC50 [1] [µM] | Therapeutic range: CC50/IC50, CTG ([2]; SARS-CoV-2 omicron in Calu-3 cells, CC50 by CTG) | Therapeutic range: CC50/IC50, IncuCyte ([2]; SARS-CoV-2 omicron in Calu-3 cells, CC50 by IncuCyte) | Therapeutic range: CC50/IC50, MTT ([2]; SARS-CoV-2 omicron in Calu-3 cells, CC50 by MTT) | Therapeutic range: CC50/IC50, CTG ([2]; human, calu-3 cells) | Therapeutic range: CC50/IC50, IncuCyte ([2]; human, calu-3 cells) | Therapeutic range: CC50/IC50, MTT ([2]; human, calu-3 cells)
COc1[nH]c(=O)c(C(=O)C(C)CC(C)C(Cl)CCl)c(O)c1OC (centres unmarked) [Atpenin A5] | 0.68 | CTG: 1.3 | IncuCyte: > 117.6 | MTT: 1.8 | – | – | –
[H]/N=C(/N)N/C(=N/[H])NCCc1ccccc1 [Phenformin, phenformin] | 1.35 | – | – | – | CTG: 1674 | IncuCyte: 1111 | MTT: 1123

Reference: patent publication EP4268810A1 (priority 2022, dated 2023)
